Laboratory results from article PMC11435220, “Anticancer Activity of Imidazolyl Gold(I/III) Compounds in Non-Small Cell Lung Cancer Cell Lines” (Pharmaceuticals, 2024).

Assays:
H157 = assay: MTT viability assay, H157; type: cell-based, human; details: mean ± span, 48 h treatment, cell line with KRAS mutation
Method: (§1) NSCLC cell lines were obtained from the Hamon Center for Therapeutic Oncology Research (UT Southwestern Medical Center). IMR-90 human lung fibroblasts were from ATCC (CC-186). All cell lines were maintained and treated in RPMI medium (Cytiva (Shanghai, China), #SH30027), supplemented with 10% heat-inactivated FBS (Millipore Sigma (Darmstadt, Germany), F0394).
(§2) 5000–10,000 cells/0.1 mL/well were seeded in 96-well plates to achieve 70% confluence after 24 h. All drug stock solutions were prepared fresh in DMSO at a concentration of 10 mM. The day after cell plating, we added 0.1 mL of medium containing the appropriate drug dilutions. After 48 h of treatment, 10 μL of MTT solution (5 mg/mL) was added to each well. After 4 h incubation, the medium was aspirated, and the formazan salts dissolved in 200 μL DMSO/well for 10 min at 37 °C. The absorbance was read at 570 nm (OD 570 nm). Data are represented as mean ± SD of two independent experiments.
(§3) Statistical and data analysis was performed using GraphPad Prism (v10). IC50 values were calculated using a three-parameter non-linear regression model with log(inhibitor) vs. response. For the TxrR activity statistics, the groups were compared using a two-way ANOVA followed by Dunnett’s multiple comparisons with alpha = 0.05. The correlation between IC50 values and TxrR activity was achieved using Pearson correlation with alpha = 0.05.

H1993 = assay: MTT viability assay, H1993; type: cell-based, human; details: mean ± span, 48 h treatment, cell line without KRAS mutation
Method: as §1, §2, §3

[1] = tested on: TrxR in H522 cell lysates; assay: Thioredoxin reductase activity in lysates of treated H522 cells; type: cell-based, human; details: for Mean Diff. TrxR activity vs. veh: H522 lysate, 24 h treatment at 5 μM
Method: The enzymatic activity of TrxR in the A549 and H522 cell lysates was measured using the TrxR assay Kit (Abcam ab83463) following the manufacturer’s instructions. This kit is based on the TxrR-mediated reduction of the colorless DTNB into TNB2—(yellow). Briefly, cells were plated to reach 70% confluence on a 100-mm dish in one day. They were treated with 5 μM of the gold compounds or the equivalent quantity of DMSO for 24 h. Then, cells were washed in PBS 1X, detached, and lysed in 100 μL of cold TrxR assay buffer supplemented with the Proteinase Inhibitor Cocktail. 20 μg and 40 μg of total proteins were used for the A549 and the H522, respectively. The DTNB substrate was added to samples with or without TrxR inhibitor (provided with the kit) in 96-well plates. The OD412 was measured soon after the substrate addition (A1) and then after 25, 60, 90, and 110 min (An) at 25 °C using a FLUOstar Omega Microplate Reader (BGM Labtech, Chicago, IL, USA). Data analysis was performed following the manufacturer’s instructions. The OD of TNB2, generated by TrxR in every condition, is:ΔA412 nm = (AnAB − AnINH) − (AB − A1INH) where AB is the assay buffer, and INH is the inhibitor. The TrxR activity is:(2) ΔB/Tn−T1×mg of protein lysate×sample dilution factor=(nmol/min)/mg=mU/mg where ΔB is the TNB amount calculated applying ΔA412 nm to TNB standard curve (in nmol), T1 is the time of the first reading (A1AB, and A1INH) (in min), Tn is the time of the second reading (AnAB and AnINH) (in min). The residual TxrR activity (%) was calculated by normalizing the TxrR activity for each compound with the matching vehicle values at every n time point.
as §3

IMR90 = assay: MTT viability assay, IMR90 non-transformed lung fibroblasts; type: cell-based, human; details: for selectivity for the NSCLC cell lines over the lung fibroblasts: IMR90 vs NSCLC cell lines, MTT 48 h; for IC50: mean ± span, 48 h treatment, MTT, non-transformed human lung fibroblasts
Method: as §1, §2, §3

HCC-44 = assay: MTT viability assay, HCC-44; type: cell-based, human; details: mean ± span, 48 h treatment, cell line with KRAS mutation
Method: as §1, §2, §3

H460 = assay: MTT viability assay, H460; type: cell-based, human; details: mean ± span, 48 h treatment, cell line with KRAS mutation
Method: as §1, §2, §3

H661 = assay: MTT viability assay, H661; type: cell-based, human; details: mean ± span, 48 h treatment, cell line without KRAS mutation
Method: as §1, §2, §3

[2] = tested on: human NSCLC cell lines without KRAS mutations; assay: MTT assay, average across NSCLC cell lines without KRAS mutations; type: cell-based; details: average across cell lines without KRAS mutations (H522, H661, H1395, H1993), 48 h, read-out: IC50 * averaged values
Method: as §1, §2, §3

H522 = assay: MTT viability assay, H522; type: cell-based, human; details: mean ± span, 48 h treatment, cell line without KRAS mutation
Method: as §1, §2, §3

[3] = Solution stability by UV-visible spectra over time; type: physicochemical; details: UV-visible spectra over time; DMSO, methanol, PBS buffered solutions
Method: Stability studies were led by acquiring UV−visible spectra of 100 µM DMSO or methanol solutions of compounds 1∓8 over time (Figures S19–S29 in Supplementary Materials). […] The stability of NHC-AuX3 complexes (with X = Cl, compounds 1 and 2, with X = Br, compounds 5 and 6) was affected by the nature of both the substituents on the imidazolyl ligand and of the halide, showing a small decrease of the UV bands maxima in an hour. By analyzing the spectral data of compounds 1 and 2, a percent concentration reduction of about 4–5% was estimated within an hour, grading them eligible for biological tests. The partial instability may be attributed to the formation of cationic bis-carbeneAuCl2 species (Equation (1)), with the [bis-carbeneAuX2]^+ and the respective AuX2^−; these ions were actually detected as positive and negative ions in the ESI-MS spectra (see Figures S12 and S13). […] Additionally, the (+)ESI MS spectrum of the acetonitrile solution of compound 6 is particularly rich in positive ions (Figure S16). As concerns the mono-/bis-carbene formation, it is likely initiated by the large trans effect of the carbene ligands, which induces the chemical lability on the trans halide, triggers […], the formation of bis-carbeneAu(III) species, and AuX2^− or AuX4^− anions:2[NHC-AuX3] ⇔ [[(NHC)2AuX2] [AuX2^−] + 2X(1) […]
The stability of the samples 1-8 in DMSO solution was assayed by UV-visible spectroscopy. Spectra were acquired using the Shimadzu UV-2700i spectrophotometer, equipped with the Shimadzu CPS-100 Peltier, at 293 K. Unless diversely specified, 100 µM DMSO solutions of the 1-8 compounds were prepared and spectra were acquired each 10 minutes for a total of 60 minutes. The spectra obtained are reported as following.
Figure S19. UV-Visible Spectra acquired for complex 1.
Figure S20. UV-Visible Spectra acquired for complex 2. […]

H1792 = assay: MTT viability assay, H1792; type: cell-based, human; details: mean ± span, 48 h treatment, cell line with KRAS mutation
Method: as §1, §2, §3

[4] = tested on: human NSCLC cell lines with KRAS mutations; assay: MTT assay, average across NSCLC cell lines with KRAS mutations; type: cell-based; details: 48 h, read-out: IC50 * averaged values
Method: as §1, §2, §3

Compound | IC50 (H157) [µM] | IC50 (H1993) [µM] | Mean Diff. TrxR activity vs. veh ([1]; reading at 25 min) [%] | Mean Diff. TrxR activity vs. veh ([1]; reading at 60 min) [%] | Mean Diff. TrxR activity vs. veh ([1]; reading at 90 min) [%] | Mean Diff. TrxR activity vs. veh ([1]; reading at 110 min) [%] | selectivity for the NSCLC cell lines over the lung fibroblasts (IMR90) | IC50 (IMR90) [µM] | IC50 (HCC-44) [µM] | IC50 (H460) [µM] | IC50 (H661) [µM] | IC50 [2] [µM] | IC50 (H522) [µM] | stability in solution [3] | IC50 (H1792) [µM] | IC50 [4] [µM] | TrxR activity reduction / inhibition ([1]; H522, 24 h treatment, stated for both cell lines)
Clc1n[c]([Au-][P+](c2ccccc2)(c2ccccc2)c2ccccc2)n(Cc2ccccc2)c1Cl [Compound 7] | 8.5 ± 1.2 | 1.8 ± 0.96 | −57.19 | −91.41 | −90.61 | −89.86 | good selectivity | 63 ± 2.5 | 9.2 ± 1.02 | 6.6 ± 1.02 | 0.95 ± 1 | 4 | 6.5 ± 0.97 | highest stability in solution | 12 ± 1.04 | 10 | 
Cn1cc[n+](C)[c]1[Au-2]([Cl])[P+](c1ccccc1)(c1ccccc1)c1ccccc1 [Compound 8] | 17 ± 1.2 | 1.8 ± 1.05 | −81.92 | −82.1 | −91.89 | −88.27 | good selectivity | 87 ± 4.9 | 7.3 ± 1.05 | 13 ± 1.4 | 1.1 ± 1.1 | 3 | 3.3 ± 0.93 | highest stability in solution | 15 ± 1.1 | 11 | more than 80%
